Test results taken from ChEMBL document CHEMBL4334421, “Design, synthesis and biological evaluation of β-peptoid-capped HDAC inhibitors with anti-neuroblastoma and anti-glioblastoma activity” (Medchemcomm, 2019).

Tests used:
[1] = target: Histone deacetylase 1 (Homo sapiens, UniProt Q13547); test: Inhibition of recombinant full length C-terminal FLAG/His-tagged human HDAC1 expressed in baculovirus infected Sf9 cells using Z-Lys(Ac)-AMC as substrate incubated for 90 mins followed by trypsin addition and measured after 30 mins by fluorescence based assay
Chain of Histone deacetylase 1 (Q13547 whole entry): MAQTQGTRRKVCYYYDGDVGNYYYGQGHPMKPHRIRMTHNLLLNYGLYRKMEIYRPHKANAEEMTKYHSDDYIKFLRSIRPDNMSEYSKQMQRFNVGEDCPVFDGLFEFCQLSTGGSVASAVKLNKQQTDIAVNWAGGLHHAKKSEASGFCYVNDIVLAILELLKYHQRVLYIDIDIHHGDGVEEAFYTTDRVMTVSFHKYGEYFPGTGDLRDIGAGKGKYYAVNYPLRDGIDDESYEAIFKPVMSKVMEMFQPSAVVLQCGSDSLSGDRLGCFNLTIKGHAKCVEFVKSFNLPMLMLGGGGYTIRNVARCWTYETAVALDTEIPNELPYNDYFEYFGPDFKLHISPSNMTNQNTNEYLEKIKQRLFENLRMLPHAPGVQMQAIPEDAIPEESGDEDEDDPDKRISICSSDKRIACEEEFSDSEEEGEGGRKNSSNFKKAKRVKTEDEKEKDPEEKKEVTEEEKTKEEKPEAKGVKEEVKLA

[2] = target: T1, Protein deacetylase HDAC6 (Homo sapiens, UniProt Q9UBN7); test: Inhibition of recombinant full length N-terminal GST-tagged human HDAC6 expressed in baculovirus infected Sf9 cells using Z-Lys(Ac)-AMC as substrate incubated for 90 mins followed by trypsin addition and measured after 30 mins by fluorescence based assay
T1 sequence (Q9UBN7 whole entry): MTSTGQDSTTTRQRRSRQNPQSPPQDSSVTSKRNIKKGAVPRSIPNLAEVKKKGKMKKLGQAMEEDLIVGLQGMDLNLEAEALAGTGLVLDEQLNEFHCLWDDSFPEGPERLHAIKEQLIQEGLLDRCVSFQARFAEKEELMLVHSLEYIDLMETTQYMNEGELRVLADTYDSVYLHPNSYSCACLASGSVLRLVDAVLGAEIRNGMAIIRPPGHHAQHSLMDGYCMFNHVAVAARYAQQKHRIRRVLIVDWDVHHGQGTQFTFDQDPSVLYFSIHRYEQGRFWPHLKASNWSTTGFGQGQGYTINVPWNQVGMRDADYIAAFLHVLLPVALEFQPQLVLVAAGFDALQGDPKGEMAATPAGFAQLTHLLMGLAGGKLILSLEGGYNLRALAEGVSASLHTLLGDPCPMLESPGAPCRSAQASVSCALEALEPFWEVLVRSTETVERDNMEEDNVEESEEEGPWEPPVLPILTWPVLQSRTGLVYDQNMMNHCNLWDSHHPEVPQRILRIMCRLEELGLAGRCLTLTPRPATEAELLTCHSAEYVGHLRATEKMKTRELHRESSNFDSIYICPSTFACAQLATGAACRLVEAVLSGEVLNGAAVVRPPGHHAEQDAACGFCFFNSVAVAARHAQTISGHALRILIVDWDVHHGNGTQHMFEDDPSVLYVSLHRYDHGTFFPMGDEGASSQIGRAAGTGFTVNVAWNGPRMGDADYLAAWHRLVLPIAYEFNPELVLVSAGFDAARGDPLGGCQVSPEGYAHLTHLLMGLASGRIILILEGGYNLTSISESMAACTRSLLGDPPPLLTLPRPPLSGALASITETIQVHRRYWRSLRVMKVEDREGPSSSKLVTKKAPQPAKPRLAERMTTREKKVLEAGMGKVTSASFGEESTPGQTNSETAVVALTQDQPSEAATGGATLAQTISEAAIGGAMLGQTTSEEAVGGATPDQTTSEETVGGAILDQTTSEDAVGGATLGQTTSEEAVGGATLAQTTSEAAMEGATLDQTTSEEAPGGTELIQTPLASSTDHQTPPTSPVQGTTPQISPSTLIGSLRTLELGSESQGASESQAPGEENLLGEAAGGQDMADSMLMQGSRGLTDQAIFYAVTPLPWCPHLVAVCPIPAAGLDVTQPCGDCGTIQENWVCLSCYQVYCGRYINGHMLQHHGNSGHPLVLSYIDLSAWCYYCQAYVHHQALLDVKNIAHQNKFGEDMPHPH

[3] = tested on: CHP-134; test: Antiproliferative activity against human CHP134 cells assessed as reduction in cell viability incubated for 72 hrs by cell-titer Glo assay; format: functional, cell-based; conditions: CHP-134, 72 h
[4] = tested on: IMR-32; test: Antiproliferative activity against human IMR32 cells assessed as reduction in cell viability incubated for 72 hrs by cell-titer Glo assay; format: functional, cell-based; conditions: IMR-32, 72 h
[5] = tested on: SK-N-AS; test: Antiproliferative activity against human SK-N-AS cells assessed as reduction in cell viability incubated for 72 hrs by cell-titer Glo assay; format: functional, cell-based
[6] = tested on: NB1; test: Antiproliferative activity against human NB-1 cells assessed as reduction in cell viability incubated for 72 hrs by cell-titer Glo assay; format: functional, cell-based; conditions: NB1, 72 h
[7] = tested on: G55T2; test: Antiproliferative activity against human G55T2 cells assessed as reduction in cell viability incubated for 72 hrs by WST-8 assay; format: functional, cell-based; conditions: G55T2, 72 h
[8] = tested on: G55T2; test: Cell cycle arrest in human G55T2 cells assessed as accumulation in G0/G1 phase at 1 uM incubated for 72 hrs by propidium iodide based flow cytometry (reference value: 49.9 %); format: functional
[9] = tested on: G55T2; test: Cell cycle arrest in human G55T2 cells assessed as accumulation in S phase at 1 uM incubated for 72 hrs by propidium iodide based flow cytometry (reference value: 14.7 %); format: functional
[10] = tested on: G55T2; test: Cell cycle arrest in human G55T2 cells assessed as accumulation in G2/M phase at 1 uM incubated for 72 hrs by propidium iodide based flow cytometry (reference value: 26.8 %); format: functional
[11] = tested on: G55T2; test: Cell cycle arrest in human G55T2 cells assessed as accumulation in subG0 phase at 1 uM incubated for 72 hrs by propidium iodide based flow cytometry (reference value: 4.5 %); format: functional
[12] = tested on: G55T2; test: Cell cycle arrest in human G55T2 cells assessed as accumulation in G0/G1 phase at 3 uM incubated for 72 hrs by propidium iodide based flow cytometry (reference value: 49.9 %); format: functional
[13] = tested on: G55T2; test: Cell cycle arrest in human G55T2 cells assessed as accumulation in S phase at 3 uM incubated for 72 hrs by propidium iodide based flow cytometry (reference value: 14.7 %); format: functional
[14] = tested on: G55T2; test: Cell cycle arrest in human G55T2 cells assessed as accumulation in G2/M phase at 3 uM incubated for 72 hrs by propidium iodide based flow cytometry (reference value: 26.8 %); format: functional
[15] = tested on: G55T2; test: Cell cycle arrest in human G55T2 cells assessed as accumulation in subG0 phase at 3 uM incubated for 72 hrs by propidium iodide based flow cytometry (reference value: 4.5 %); format: functional

| SMILES | IC50 [1] [nM] | IC50 [2] [nM] | IC50 [3] [nM] | IC50 [4] [nM] | IC50 [5] [nM] | IC50 [6] [nM] | IC50 [7] [nM] | Activity [8] [%] | Activity [9] [%] | Activity [10] [%] | Activity [11] [%] | Activity [12] [%] | Activity [13] [%] | Activity [14] [%] | Activity [15] [%] |
| --- | --- | --- | --- | --- | --- | --- | --- | --- | --- | --- | --- | --- | --- | --- | --- |
| CN(C)c1ccc(C(=O)N(CCC(=O)NCc2ccc(Cl)cc2)Cc2ccc(C(=O)NO)cc2)cc1 | 21.2 | 10 | 610 | 310 | 390 | 850 | 460 |  |  |  |  |  |  |  |  |
| Cc1ccc(C(=O)N(CCC(=O)NCc2ccccc2)Cc2ccc(C(=O)NO)cc2)cc1 | 16.1 | 16.7 | 1100 | 630 | 910 | 1610 | 690 |  |  |  |  |  |  |  |  |
| Cc1ccc(NC(=O)CCN(Cc2ccc(C(=O)NO)cc2)C(=O)c2ccc(N(C)C)cc2)cc1 | 12.9 | 19.5 | 540 | 300 | 400 | 660 | 330 |  |  |  |  |  |  |  |  |
| COc1cc(OC)cc(C(=O)N(CCC(=O)NCc2ccccc2)Cc2ccc(C(=O)NO)cc2)c1 | 147 | 26 | 12300 | 6040 | 9470 | 13300 | 14700 |  |  |  |  |  |  |  |  |
| Cc1ccc(CNC(=O)CCN(Cc2ccc(C(=O)NO)cc2)C(=O)c2ccc(N(C)C)cc2)cc1 | 27.8 | 14.4 | 420 | 260 | 340 | 700 | 430 |  |  |  |  |  |  |  |  |
| COc1ccc(C(=O)N(CCC(=O)NCc2ccccc2)Cc2ccc(C(=O)NO)cc2)cc1 | 41.9 | 25.3 | 1900 | 1090 | 1740 | 2520 | 3490 |  |  |  |  |  |  |  |  |
| Cc1ccc(NC(=O)CCN(Cc2ccc(C(=O)NO)cc2)C(=O)c2cc(C)cc(C)c2)cc1 | 43 | 31.1 | 380 | 210 | 220 | 670 | 370 | 52.3 | 13.2 | 29.1 | 3.5 | 30.2 | 9.8 | 31.1 | 23.3 |
| O=C(CCCCCCC(=O)Nc1ccccc1)NO [VORINOSTAT] |  |  |  |  |  |  |  |  |  |  |  | 31.3 | 8.1 | 28.9 | 24.8 |
| O=C(CCN(Cc1ccc(C(=O)NO)cc1)C(=O)c1ccccc1)NCc1ccccc1 | 134 | 12.5 | 4680 | 2360 | 3310 | 6660 | 5940 |  |  |  |  |  |  |  |  |
| O=C(NO)c1ccc(CC(=O)N(CCO)c2ccccc2)cc1 | 2100 |  |  |  |  |  |  |  |  |  |  |  |  |  |  |
| Cc1cc(C)cc(C(=O)N(CCC(=O)NCc2ccccc2)Cc2ccc(C(=O)NO)cc2)c1 | 128 | 20.5 | 2030 | 1390 | 1860 | 3870 | 4250 |  |  |  |  |  |  |  |  |
| Cc1ccc(NC(=O)CCN(Cc2ccc(C(=O)NO)cc2)C(=O)c2ccccc2)cc1 | 27.5 | 10.7 | 1160 | 550 | 620 | 1480 | 540 |  |  |  |  |  |  |  |  |
| CN(C)c1ccc(C(=O)N(CCC(=O)NCc2ccccc2)Cc2ccc(C(=O)NO)cc2)cc1 | 14.7 | 14.8 | 1160 | 840 | 1420 | 1720 | 1150 |  |  |  |  |  |  |  |  |
